# Assay results taken from US20260374782A1, “NEW COMPOUNDS, PROCESSES FOR PREPARING THE SAME AND THEIR USE AS DRUGS” (B&A ONCOMEDICAL, priority 2022, published 2026).
# Molecular target: T1, NKCC1 (Homo sapiens, UniProt P55011)
# T1 construct: endogenous in cells; host or cells: native HEK293 cells
# T1 sequence (P55011 1-1212): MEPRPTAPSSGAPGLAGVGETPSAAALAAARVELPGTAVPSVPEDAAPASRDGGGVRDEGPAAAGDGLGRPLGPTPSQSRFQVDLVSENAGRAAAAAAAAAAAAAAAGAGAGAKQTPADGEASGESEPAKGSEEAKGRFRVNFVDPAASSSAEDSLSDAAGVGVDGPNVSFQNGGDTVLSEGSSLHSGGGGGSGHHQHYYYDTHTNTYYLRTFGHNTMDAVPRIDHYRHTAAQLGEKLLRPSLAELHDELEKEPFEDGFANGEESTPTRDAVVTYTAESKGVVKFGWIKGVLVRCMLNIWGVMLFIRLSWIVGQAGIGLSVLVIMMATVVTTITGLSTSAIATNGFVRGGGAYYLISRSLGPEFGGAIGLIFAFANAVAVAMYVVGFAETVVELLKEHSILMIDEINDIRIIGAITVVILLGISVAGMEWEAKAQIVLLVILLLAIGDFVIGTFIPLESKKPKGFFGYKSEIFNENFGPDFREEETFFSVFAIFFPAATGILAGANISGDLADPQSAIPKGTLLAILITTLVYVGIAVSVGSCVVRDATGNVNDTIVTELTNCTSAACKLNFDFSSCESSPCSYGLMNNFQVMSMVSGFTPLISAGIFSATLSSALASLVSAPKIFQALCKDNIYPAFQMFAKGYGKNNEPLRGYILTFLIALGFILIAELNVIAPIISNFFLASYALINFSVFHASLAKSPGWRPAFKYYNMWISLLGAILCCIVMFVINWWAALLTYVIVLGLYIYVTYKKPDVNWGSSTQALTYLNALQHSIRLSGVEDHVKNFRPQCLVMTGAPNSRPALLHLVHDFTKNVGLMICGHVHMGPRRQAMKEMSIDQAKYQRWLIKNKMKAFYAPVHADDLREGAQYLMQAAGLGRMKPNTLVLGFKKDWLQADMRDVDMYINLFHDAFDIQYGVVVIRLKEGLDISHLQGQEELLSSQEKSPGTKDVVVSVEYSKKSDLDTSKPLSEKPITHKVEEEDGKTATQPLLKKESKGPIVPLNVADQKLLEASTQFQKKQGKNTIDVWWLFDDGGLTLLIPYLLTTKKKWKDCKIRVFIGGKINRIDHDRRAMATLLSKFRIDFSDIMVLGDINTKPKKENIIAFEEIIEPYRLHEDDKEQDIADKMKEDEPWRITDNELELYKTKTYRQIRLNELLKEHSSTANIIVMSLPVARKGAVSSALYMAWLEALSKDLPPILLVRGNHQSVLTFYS
# Assay: NKCC1-mediated K+ influx (83Rb tracer uptake) in native HEK293 cells, hypertonic saline, 100 μM ouabain
# Assay type: cell-based
# Conditions: HEK293, no drug = 1000, 20 μM bumetanide = 0; for inhibition at 2 µM: read-out: NKCC1 mediated flux inhibition at 2 μM (%); for inhibition at 20 µM: read-out: NKCC1 mediated flux inhibition at 20 μM (%)
# Outline: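 Native cells in slightly hypertonic saline with 100 μM ouabain; 15 min preincubation then 15 min 83Rb uptake (0.25 μCi/mL), scintillation counting normalized to protein. Compounds at 2 μM and 20 μM; flux scaled 1000 (no drug) to 0 (20 μM bumetanide), triplicate dishes.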
Structure (SMILES),inhibition at 2 µM,inhibition at 20 µM
"CCCCNc1cc(C(=O)O)cc(S(=N)(=O)NC)c1Oc1ccccc1 (stereo not shown) [Compound 51, 3-(butylamino)-5-(methylaminosulfonimidoyl)-4-phenoxy-benzoic acid]",50 to 75%,≥ 75%
"CCCCNc1cc(C(=O)O)cc(S(=N)(=O)Nc2ccccc2)c1Oc1ccccc1 (stereo not shown) [Compound 57, 3-(anilinosulfonimidoyl)-5-(butylamino)-4-phenoxy-benzoic acid]",50 to 75%,≥ 75%
